# Measurements: patent US12390474B2, “Immediate release multilayer tablet” (priority 2020, dated 2025)
# Experiments:
# [1] = Particle size distribution of samidorphan L-malate; format: physicochemical
# Description: The particle size distribution of the samidorphan or samidorphan pharmaceutically acceptable salt (e.g., L-malate) present in a disclosed tablet (e.g., as part of a first tablet layer) may be for example, a (D10) of between about 10 μm to about 80 μm, a (D50) of between about 40 μm to about 200 μm and a (D90) of between about 100 μm to about 300 μm, more preferably a D10 of between about 25 μm and about 50 μm; the D50 of between about 60 μm and about 100 μm. In some embodiments, D90 of the samidorphan (e.g., L-malate salt) is between about 120 μm and about 175 μm. […] Particle size (diameter) may be determined by conventional techniques such as dynamic light scattering. The ‘Dx’ nomenclature means that ‘x’ percent of the particles have a number average diameter (‘D’) less than or equal to the reported value when measured by static or dynamic light scattering techniques known to those skilled in the art. (e.g. D10=175 μm, means that 10% of particles have a number average diameter of less than or equal to 175 μm), a D50 (or Dv50) of less than 300 μm, means that 50% of the particle population has a diameter of less than or equal to 300 μm. The term “Dx” as used herein refers to a volume based size and is equivalent to the term “DvX” commonly used to characterize particle sizes. Since the particles of the present invention may be irregular in shape, an approximation of the particle size is made on the basis of the volume-based particle size, which specifies the diameter of the sphere that has same volume as a given particle. Unless otherwise specified, all particle sizes are specified in terms of volume-based measurements and are measured by laser light scattering/diffraction. Particle sizes are then determined based on Mie scattering theory.
# For samidorphan L-malate, a recrystallization process was implemented providing particle size control during manufacturing to intentionally target a particle size distribution similar to the size of the drug product filler excipients. Unmilled and recrystallized grades of samidorphan L-malate were characterized for particle size distribution using 3 unique lots of each. The recrystallization was targeted to produce material with less fine particles thus increasing the D10. A slight increase in the D50 and decrease in the D90 adjusted the centerpoint of the distribution and decreased the overall span of the distribution. Overall the recrystallized materials had tighter distributions and reduced lot to lot variability, indicating better control. No change in the solid state form was observed between unmilled and recrystallized samidorphan L-malate as assessed by PXRD spectral comparison.
# [2] = Chemical compatibility of olanzapine and samidorphan L-malate, stability at 40° C./75% RH by HPLC; format: physicochemical; conditions: for Percentage Related Compound B Impurity: 40° C./75% RH, ND: ≤LOD (0.02 wt %), LOQ: 0.05 wt %; for Percentage Total Impurities: 40° C./75 RH
# Description: Samples in 20 ml Wheaton scintillation vials were stored at 40° C./75% RH in open and closed vial configurations. Closed vials were vials closed with a urea cap and wrapped using parafilm under ambient conditions. The contents of the vials were tested at the start of the study and after 2, 6 and 12 weeks. At each time point samples were analysed by reversed phase HPLC (Waters ACQUITY UPLC H-Class System) with ACQUITY PDA Detector using a Waters ACQUITY UPLC CSH C18 Column, 3 mm×100 mm, and a gradient elution of acetate buffer pH 5.1 and 50/50 (v/v) acetonitrile/methanol.
# [3] = cited from earlier work
compound,measurement,setting,value
NC(=O)c1ccc2c(c1O)[C@]13CCN(CC4CC4)[C@H](C2)[C@]1(O)CCC(=O)C3.O=C(O)C[C@H](O)C(=O)O [Sample number 3],Particle size D10,[1]; listed as 3,6 μm
same,Particle size D50,[1]; listed as 3,28 μm
same,Particle size D90,[1]; listed as 3,243 μm
"Cc1cc2c(s1)Nc1ccccc1N=C2N1CCN(C)CC1 [Olanzapine, 2-methyl-4-(4-methyl-1-piperazinyl)-10H-thieno[2,3-b][1,5]benzodiazepine]",Percentage Related Compound B Impurity,[2]; INITIAL,0.01 wt %
same,Percentage Related Compound B Impurity,"[2]; OPEN vial, 2 WEEK",<LOQ
same,Percentage Total Impurities,"[2]; CLOSED vial, 2 WEEK",0.00%
same,Percentage Total Impurities,"[2]; CLOSED vial, 6 WEEK",0.00%
same,Percentage Total Impurities,"[2]; CLOSED vial, 12 WEEK",0.00%
same,Percentage Total Impurities,[2]; INITIAL,0.00%
same,Percentage Total Impurities,"[2]; OPEN vial, 2 WEEK",0.00%
same,Percentage Total Impurities,"[2]; OPEN vial, 6 WEEK",0.00%
same,Percentage Total Impurities,"[2]; OPEN vial, 12 WEEK",0.00%
NC(=O)c1ccc2c(c1O)[C@]13CCN(CC4CC4)[C@H](C2)[C@]1(O)CCC(=O)C3.O=C(O)C[C@H](O)C(=O)O [Sample number 5],Particle size D10,[1]; listed as 5,46 μm
same,Particle size D50,[1]; listed as 5,90 μm
same,Particle size D90,[1]; listed as 5,160 μm
NC(=O)c1ccc2c(c1O)[C@]13CCN(CC4CC4)[C@H](C2)[C@]1(O)CCC(=O)C3.O=C(O)C[C@H](O)C(=O)O [Sample number 2],Particle size D10,[1]; listed as 2,10 μm
same,Particle size D50,[1]; listed as 2,36 μm
same,Particle size D90,[1]; listed as 2,231 μm
NC(=O)c1ccc2c(c1O)[C@]13CCN(CC4CC4)[C@H](C2)[C@]1(O)CCC(=O)C3.O=C(O)C[C@H](O)C(=O)O [Sample number 4],Particle size D10,[1]; listed as 4,33 μm
same,Particle size D50,[1]; listed as 4,73 μm
same,Particle size D90,[1]; listed as 4,130 μm
NC(=O)c1ccc2c(c1O)[C@]13CCN(CC4CC4)[C@H](C2)[C@]1(O)CCC(=O)C3.O=C(O)C[C@H](O)C(=O)O [Sample number 6],Particle size D10,[1]; listed as 6,42 μm
same,Particle size D50,[1]; listed as 6,90 μm
same,Particle size D90,[1]; listed as 6,165 μm
NC(=O)c1ccc2c(c1O)[C@]13CCN(CC4CC4)[C@H](C2)[C@]1(O)CCC(=O)C3.O=C(O)C[C@H](O)C(=O)O [Sample number 1],Particle size D10,[1]; listed as 1,8 μm
same,Particle size D50,[1]; listed as 1,37 μm
same,Particle size D90,[1]; listed as 1,223 μm
"NC(=O)c1ccc2c(c1O)[C@]13CCN(CC4CC4)[C@H](C2)[C@]1(O)CCC(=O)C3.O=C(O)C[C@H](O)C(=O)O [Samidorphan L-malate, morphinan-3-carboxamide, 17-(cyclopropylmethyl)-4, 14-dihydroxy6-oxo-, (2S)-2-hydroxybutanedioate]",Percentage Total Impurities,"[2]; CLOSED vial, 2 WEEK",0.00%
same,Percentage Total Impurities,"[2]; CLOSED vial, 6 WEEK",0.00%
same,Percentage Total Impurities,"[2]; CLOSED vial, 12 WEEK",0.00%
same,Percentage Total Impurities,[2]; INITIAL,0.00%
same,Percentage Total Impurities,"[2]; OPEN vial, 2 WEEK",0.00%
same,Percentage Total Impurities,"[2]; OPEN vial, 6 WEEK",0.00%
same,Percentage Total Impurities,"[2]; OPEN vial, 12 WEEK",0.00%
same,pKa (amine),[3],8.3
same,pKa (phenol),[3],10.1
